Target: T1, human GluR2 flip (unedited) AMPA receptor subunit (Homo sapiens, UniProt P42262)
T1 construct: host or cells: HEK 293
Experiment: AMPA calcium ion influx assay
Type: cell-based
Details: HEK293; test compound concentration of 10 μM; HEK 293 cells expressing human GluR2 flip; glutamate stimulus; read-out: Mean % response at 10 μM
From the text: The potentiation of AMPA receptors by the compounds of the invention may be assessed by measuring calcium ion influx via AMPA receptors upon exposure of the receptor to glutamate in the presence of a test compound. One such assay is the calcium ion influx assay described in the Examples using cells which express human GluR2 flip (GluA2 flip) AMPA receptor subunits which form functional homotetrameric AMPA receptors. The GluA2 flip sub-units are highly expressed in cortical and sub-cortical brain tissue (Ward et al., 2010, ibid).
The ability of the compounds of the invention to potentiate glutamate receptor-mediated response was determined using fluorescent calcium-indicator dye.
96 well plates were prepared containing confluent monolayer of HEK 293 cells stably expressing human GluR2 flip (unedited) AMPA receptor subunit (obtained from GlaxoSmithKline). These cells form functional homotetrameric AMPA receptors. The tissue culture medium in the wells was discarded and the wells were each washed three times with standard buffer for the cell line ([…] NaCl, 5 mM KCl, 1 mM MgCl2, 2 mM CaCl2, 20 mM N-[2-hydroxyethyl]-piperazine-N-[2-ethanesulfonic acid (HEPES), 5.5 mM glucose, pH7.3). The plates were then incubated for 60 minutes in the dark with 2 μM Calcium 6 dye (Molecular Devices). After incubation, each well was washed three times with buffer (80 μl).
Compounds of the invention were dissolved in dimethylsulfoxide (DMSO) at a stock concentration of 10 mM. These solutions were further diluted with DMSO. Each dilution (4 μl) to another compound plate and buffer (200 μl) was added. An agonist stimulus plate (glutamate) was prepared by dissolving sodium glutamate in water to give a concentration of 100 mM. This solution was diluted with buffer to give a final concentration of 500 μM and dispensed into another 96 well plate (200 μl/well).
The cell plate was then transferred to a fluorescence imaging plate reader such as the Flexstation 3 (Molecular Devices). A baseline fluorescence was taken over a 10 to 240 second period and then 40 μl from each plate containing a compound of the invention made up in standard buffer solution was added. Volumes were chosen to give a final concentration range of 40 μM to 4 μM. The fluorescence was then read over a 4 minute period. The activities of the compounds were determined by measuring peak fluorescence after the last addition. The activity can also be expressed relative to the fluorescence increase induced by cyclothiazide at their maximum response (i.e. greater than 40 μM).

T1 sequence (P42262 22-883 isoform P42262-2 limits assumed): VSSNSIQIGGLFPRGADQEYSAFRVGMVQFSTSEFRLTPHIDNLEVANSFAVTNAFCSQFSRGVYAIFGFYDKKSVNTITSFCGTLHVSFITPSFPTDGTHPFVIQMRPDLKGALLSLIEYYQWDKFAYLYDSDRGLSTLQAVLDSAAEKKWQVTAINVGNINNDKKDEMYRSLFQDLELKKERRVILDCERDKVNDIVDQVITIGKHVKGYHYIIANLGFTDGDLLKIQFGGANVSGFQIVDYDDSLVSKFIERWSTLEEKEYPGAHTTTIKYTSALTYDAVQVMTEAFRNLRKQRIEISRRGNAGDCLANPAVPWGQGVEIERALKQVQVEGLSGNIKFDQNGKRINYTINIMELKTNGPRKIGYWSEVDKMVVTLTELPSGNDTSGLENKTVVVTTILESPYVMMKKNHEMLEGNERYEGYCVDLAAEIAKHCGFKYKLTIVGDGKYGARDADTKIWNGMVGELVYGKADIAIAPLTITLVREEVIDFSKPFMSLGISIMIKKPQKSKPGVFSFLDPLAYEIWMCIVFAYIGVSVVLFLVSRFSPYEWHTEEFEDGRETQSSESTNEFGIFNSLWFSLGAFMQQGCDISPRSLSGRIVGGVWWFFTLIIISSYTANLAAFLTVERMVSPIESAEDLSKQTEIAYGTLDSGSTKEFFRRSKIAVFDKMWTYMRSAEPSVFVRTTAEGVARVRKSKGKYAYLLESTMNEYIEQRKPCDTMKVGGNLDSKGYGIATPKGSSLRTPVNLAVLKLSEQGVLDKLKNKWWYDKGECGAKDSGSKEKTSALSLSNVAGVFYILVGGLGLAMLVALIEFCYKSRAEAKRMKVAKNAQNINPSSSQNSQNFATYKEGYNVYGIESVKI

Structure (SMILES) | activation at 10 µM [%]
O=C1CCCN1Cc1ccc(-c2ccc(CO)c(C(F)(F)F)n2)cc1 [Example 1, 1-[[4-[5-(Hydroxymethyl)-6-(trifluoromethyl)-2-pyridyl]phenyl]methyl]pyrrolidin-2-one] | 33
Cc1cc(C(F)(F)F)nc(-c2ccc(CN3CCCC3=O)cc2)c1CO [Example 2, 1-[[4-[3-(Hydroxymethyl)-4-methyl-6-(trifluoromethyl)-2-pyridyl]phenyl]methyl]pyrrolidin-2-one] | 41
CNC(=O)c1c(C)cc(C(F)(F)F)nc1-c1ccc(CN2CCCC2=O)cc1 [Example 3, N,4-Dimethyl-2-[4-[(2-oxopyrrolidin-1-yl)methyl]phenyl]-6-(trifluoromethyl)pyridine-3-carboxamide] | 4
O=C1CCCN1Cc1ccc(-c2nc(C(F)(F)F)ccc2CO)cc1 [Example 4, 1-[[4-[3-(Hydroxymethyl)-6-(trifluoromethyl)-2-pyridyl]phenyl]methyl]pyrrolidin-2-one] | 9
Cc1cc(C(F)(F)F)nc(-c2ccc(CN3CCCC3=O)cc2)c1C#N [Example 5, 4-Methyl-2-[4-[(2-oxopyrrolidin-1-yl)methyl]phenyl]-6-(trifluoromethyl)pyridine-3-carbonitrile] | 99
Cc1nc(C(F)(F)F)nc(-c2ccc(CN3CCCC3=O)cc2)c1C [Example 6, 1-[[4-[5,6-Dimethyl-2-(trifluoromethyl)pyrimidin-4-yl]phenyl]methyl]pyrrolidin-2-one] | 29
N#Cc1ccc(C(F)(F)F)nc1-c1ccc(CN2CCCC2=O)cc1 [Example 7, 2-[4-[(2-Oxopyrrolidin-1-yl)methyl]phenyl]-6-(trifluoromethyl)pyridine-3-carbonitrile] | 21
O=C1COCCN1Cc1ccc(-c2ccc(CO)c(C(F)(F)F)n2)cc1 [Example 8, 4-[[4-[5-(Hydroxymethyl)-6-(trifluoromethyl)-2-pyridyl]phenyl]methyl]morpholin-3-one] | 14
Cc1cc(C(F)(F)F)nc(-c2ccc(CN3CCOCC3=O)cc2)c1CO [Example 9, 4-[[4-[3-(Hydroxymethyl)-4-methyl-6-(trifluoromethyl)-2-pyridyl]phenyl]methyl]morpholin-3-one] | 14
O=C1COCCN1Cc1ccc(-c2nc(C(F)(F)F)ccc2CO)cc1 [Example 10, 4-[[4-[3-(Hydroxymethyl)-6-(trifluoromethyl)-2-pyridyl]phenyl]methyl]morpholin-3-one] | 3
N#Cc1ccc(C(F)(F)F)nc1-c1ccc(CN2CCOCC2=O)cc1 [Example 11, 2-[4-[(3-Oxomorpholin-4-yl)methyl]phenyl]-6-(trifluoromethyl)pyridine-3-carbonitrile] | 11
Cc1cc(C(F)(F)F)nc(-c2ccc(CN3CCCOCC3=O)cc2)c1CO [Example 12, 4-[[4-[3-(Hydroxymethyl)-4-methyl-6-(trifluoromethyl)-2-pyridyl]phenyl]methyl]-1,4-oxazepan-3-one] | 9
Cc1cc(C(F)(F)F)nc(-c2ccc(CN3CCOCCC3=O)cc2)c1CO [Example 13, 4-[[4-[3-(Hydroxymethyl)-4-methyl-6-(trifluoromethyl)-2-pyridyl]phenyl]methyl]-1,4-oxazepan-5-one] | 5
Cc1cc(C(F)(F)F)nc(-c2ccc(CN3CCCC3=O)nc2)c1CO [Example 14, 1-[[5-[3-(Hydroxymethyl)-4-methyl-6-(trifluoromethyl)-2-pyridyl]-2-pyridyl]methyl]pyrrolidin-2-one] | 5
N#Cc1ccc(C(F)(F)F)nc1-c1ccc(CN2CCCC2=O)nc1 [Example 15, 2-[6-[(2-Oxopyrrolidin-1-yl)methyl]-3-pyridyl]-6-(trifluoromethyl)pyridine-3-carbonitrile] | 6
O=C1CCCN1Cc1ccc(-c2ccc(CF)c(C(F)(F)F)n2)cc1 [Example 16, 1-[[4-[5-(Fluoromethyl)-6-(trifluoromethyl)-2-pyridyl]phenyl]methyl]pyrrolidin-2-one] | 28
Cc1cc(C(F)(F)F)nc(-c2ccc(CN3CCCC3=O)cc2)c1CF [Example 17, 1-[[4-[3-(Fluoromethyl)-4-methyl-6-(trifluoromethyl)-2-pyridyl]phenyl]methyl]pyrrolidin-2-one] | 111
O=C1CCCN1Cc1ccc(-c2nc(C(F)(F)F)ncc2CF)cc1 [Example 18, 1-[[4-[5-(Fluoromethyl)-2-(trifluoromethyl)pyrimidin-4-yl]phenyl]methyl]pyrrolidin-2-one] | 5
O=C1CCCN1Cc1ccc(-c2nc(C(F)(F)F)ccc2CF)cc1 [Example 19, 1-[[4-[3-(Fluoromethyl)-6-(trifluoromethyl)-2-pyridyl]phenyl]methyl]pyrrolidin-2-one] | 70
Cc1cc(C(F)(F)F)nc(-c2ccc(CN3CCOCC3=O)cc2)c1CF [Example 20, 4-[[4-[3-(Fluoromethyl)-4-methyl-6-(trifluoromethyl)-2-pyridyl]phenyl]methyl]morpholin-3-one] | 112
O=C1COCCN1Cc1ccc(-c2nc(C(F)(F)F)ccc2CF)cc1 [Example 21, 4-[[4-[3-(Fluoromethyl)-6-(trifluoromethyl)-2-pyridyl]phenyl]methyl]morpholin-3-one] | 16
Cc1cc(C(F)(F)F)nc(-c2ccc(CN3CCCC3=O)nc2)c1CF [Example 22, 1-[[5-[3-(Fluoromethyl)-4-methyl-6-(trifluoromethyl)-2-pyridyl]-2-pyridyl]methyl]pyrrolidin-2-one] | 93
O=C1CCCN1Cc1ccc(-c2nc(C(F)(F)F)ccc2CF)cn1 [Example 23, 1-[[5-[3-(Fluoromethyl)-6-(trifluoromethyl)-2-pyridyl]-2-pyridyl]methyl]pyrrolidin-2-one] | 9
Cc1cc(C(F)(F)F)nc(-c2ccc(CN3CCOCC3=O)cc2)c1C#N [Example 24, 4-Methyl-2-[4-[(3-oxomorpholin-4-yl)methyl]phenyl]-6-(trifluoromethyl)pyridine-3-carbonitrile] | 39
O=C1CCCN1Cc1ccc(-c2cc(CO)cc(C(F)(F)F)n2)cc1 [Example 25, 1-[[4-[4-(Hydroxymethyl)-6-(trifluoromethyl)-2-pyridyl]phenyl]methyl]pyrrolidin-2-one] | 8
COCc1cc(-c2ccc(CN3CCCC3=O)cc2)nc(C(F)(F)F)c1 [Example 26, 1-[[4-[4-(Methoxymethyl)-6-(trifluoromethyl)-2-pyridyl]phenyl]methyl]pyrrolidin-2-one] | 4
Cc1cc(C(F)(F)F)nc(-c2ccc(CN3CCCC3=O)cc2)n1 [Example 27, 1-[[4-[4-Methyl-6-(trifluoromethyl)pyrimidin-2-yl]phenyl]methyl]pyrrolidin-2-one] | 27
O=C1CCCN1Cc1ccc(-c2nc(C(F)F)ccc2CO)cc1 [Example 28, 1-[[4-[6-(Difluoromethyl)-3-(hydroxymethyl)-2-pyridyl]phenyl]methyl]pyrrolidin-2-one] | 2
